{"source": "patent US10258602B2", "about": "(Ocera Therapeutics, Inc., priority 2007, dated 2019)", "data": [{"molecular_target": "human growth hormone secretagogue receptor (hGHS-R1a) (Homo sapiens, UniProt Q92847)", "sequence (Q92847 whole entry)": "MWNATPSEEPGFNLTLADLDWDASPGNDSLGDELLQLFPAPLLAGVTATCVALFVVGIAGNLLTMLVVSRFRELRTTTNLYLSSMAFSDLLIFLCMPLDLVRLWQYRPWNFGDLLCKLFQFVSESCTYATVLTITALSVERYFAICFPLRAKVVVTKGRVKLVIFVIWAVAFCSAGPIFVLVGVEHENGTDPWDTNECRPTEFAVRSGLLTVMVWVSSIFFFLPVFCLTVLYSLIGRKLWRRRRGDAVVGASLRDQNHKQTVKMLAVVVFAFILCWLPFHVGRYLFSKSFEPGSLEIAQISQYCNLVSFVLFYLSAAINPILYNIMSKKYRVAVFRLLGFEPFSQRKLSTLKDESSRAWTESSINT", "assay": "Competitive radioligand binding assay (ghrelin receptor), standard method A", "conditions": "binding activity at the human ghrelin receptor, standard method A", "source_text": "A competitive binding assay at the human growth hormone secretagogue receptor (hGHS-R1a) can be carried out analogously to assays described in the literature. (Bednarek, M. A.; et al. J. Med. Chem. 2000, 43, 4370-4376; Palucki, B. L.; et al. Bioorg. Med. Chem. Lett. […], 11, 1955-1957.) See also U.S. patent application Ser. Nos. 11/149,512 and 11/149,731. Binding activity at the gherlin receptor for representative compounds of the present invention is shown in the Examples below.", "units": {"Ki": "nM"}, "values": [{"smiles": "C[C@@H]1CN[C@@H](C2CC2)C(=O)N(C)[C@H](C)C(=O)N[C@H](Cc2ccccn2)C(=O)NCCCc2ccccc2O1", "note": "[Compound 972]", "Ki": "≤ 100"}, {"smiles": "C[C@@H]1C(=O)N[C@H](Cc2cccs2)C(=O)NCCCc2ncccc2OCCN[C@@H](C2CC2)C(=O)N1C", "note": "[Compound 995]", "Ki": "≤ 100"}, {"smiles": "CC1CNC(C2CC2)C(=O)N(C)C(C)C(=O)NC(Cc2ccc(F)cc2)C(=O)NCCCC2CCCCC2O1", "note": "(mixture of isomers) [Compound 1052]", "Ki": "≤ 1"}, {"smiles": "C[C@@H]1CN[C@@H](C2CC2)C(=O)N(C)[C@H](C)C(=O)N[C@H](Cc2ccc(C(F)(F)F)cc2)C(=O)NCCCc2ccccc2O1", "note": "[Compound 1038]", "Ki": "≤ 100"}, {"smiles": "C[C@@H]1C(=O)N[C@H](Cc2ccccc2)C(=O)NCCCc2ccc(F)cc2OCCN[C@@H](C2CC2)C(=O)N1C", "note": "[Compound 865]", "Ki": "≤ 100"}, {"smiles": "C[C@@H]1C(=O)N[C@H](Cc2ccc(O)cc2)C(=O)NCCCc2cccc3c2OC(CN[C@@H](C2CC2)C(=O)N1C)C3", "note": "(some centres unmarked) [Compound 1025]", "Ki": "≤ 500"}, {"smiles": "C[C@@H]1CN[C@@H](C2CC2)C(=O)N(C)[C@H](C)C(=O)N[C@H](Cc2ccc(O)cc2)C(=O)NCCCc2cccc(F)c2O1", "note": "[Compound 991]", "Ki": "≤ 100"}, {"smiles": "CC[C@H](C)[C@@H]1NCCOc2cnccc2CCCNC(=O)[C@@H](CC(C)C)NC(=O)[C@@H](C)N(C)C1=O", "note": "[Compound 1022]", "Ki": "≤ 500"}, {"smiles": "CC(C)C[C@H]1NC(=O)[C@@H](C)N(C)C(=O)[C@H](C2CC2)NCCOc2cccnc2CCCNC1=O", "note": "[Compound 986]", "Ki": "> 500"}, {"smiles": "CC1CNC(C2CC2)C(=O)N(C)C(C)C(=O)NC(Cc2ccc(O)c(F)c2)C(=O)NCCCc2ccccc2O1", "note": "(mixture of isomers) [Compound 1049]", "Ki": "≤ 100"}, {"smiles": "CC(C)C[C@H]1NC(=O)[C@@H](C)N(C)C(=O)[C@H](C2CC2)NC[C@@H](C)Oc2cccnc2CC[C@H](C)NC1=O", "note": "[Compound 1088]", "Ki": "≤ 500"}, {"smiles": "CC[C@H](C)[C@@H]1NC[C@@H](C)Oc2cccnc2CCCNC(=O)[C@@H](CC(C)C)NC(=O)[C@@H](C)N(C)C1=O", "note": "[Compound 1000]", "Ki": "≤ 500"}, {"smiles": "CC(C)C[C@H]1NC(=O)[C@@H](C)N(C)C(=O)[C@H](C2CC2)NCCOc2ccccc2CC[C@@H](C)NC1=O", "note": "[Compound 1086]", "Ki": "≤ 100"}, {"smiles": "CO[C@H](C)[C@@H]1NC[C@@H](C)Oc2cccnc2CCCNC(=O)[C@@H](Cc2ccc(F)cc2)NC(=O)[C@@H](C)N(C)C1=O", "note": "[Compound 1032]", "Ki": "≤ 500"}, {"smiles": "C[C@@H]1C(=O)N[C@H](Cc2ccc(Cl)cc2)C(=O)NCCCc2cccc3c2OC(CC3)CN[C@@H](C2CC2)C(=O)N1C", "note": "(some centres unmarked) [Compound 947]", "Ki": "≤ 10"}, {"smiles": "CC[C@H](C)[C@@H]1NC[C@@H](C)Oc2cc(F)ccc2CCCNC(=O)[C@@H](Cc2ccc(F)cc2)NC(=O)[C@@H](C)N(C)C1=O", "note": "[Compound 856]", "Ki": "≤ 500"}, {"smiles": "C[C@@H]1CN[C@@H](C2CC2)C(=O)N(C)[C@H](C)C(=O)N[C@H](C(C)(C)c2ccc(F)cc2)C(=O)NCCCc2ccccc2O1", "note": "[Compound 1035]", "Ki": "≤ 100"}, {"smiles": "CC(=O)Oc1c(Br)cc(C[C@H]2NC(=O)[C@@H](C)N(C)C(=O)[C@H](C3CC3)NC[C@@H](C)Oc3ccccc3CCCNC2=O)cc1Br", "note": "[Compound 1066]", "Ki": "≤ 100"}, {"smiles": "C[C@@H]1C(=O)N[C@H]([C@@H](C)c2ccc(O)cc2)C(=O)NCCCc2ncccc2OCCN[C@@H](C2CC2)C(=O)N1C", "note": "[Compound 1080]", "Ki": "≤ 100"}, {"smiles": "C[C@@H]1CCc2ccccc2O[C@H](C)CN[C@@H](C2CC2)C(=O)N(C)[C@H](C)C(=O)N[C@H](Cc2ccc(F)cc2)C(=O)N1", "note": "[Compound 1010]", "Ki": "≤ 10"}, {"smiles": "CCC[C@@H]1NC[C@@H](C)Oc2ccccc2CCCNC(=O)[C@@H](Cc2ccc(F)cc2)NC(=O)[C@@H](C)N(C)C1=O", "note": "[Compound 853]", "Ki": "≤ 100"}, {"smiles": "C[C@@H]1CN[C@@H](C2CC2)C(=O)N(C)[C@H](C)C(=O)N[C@H](Cc2ccc(O)c(F)c2)C(=O)NCCCc2ccccc2O1", "note": "[Compound 1104]", "Ki": "≤ 100"}, {"smiles": "CCC[C@@H]1NC[C@@H](C)Oc2ccccc2CCCNC(=O)[C@@H](Cc2ccc(Cl)cc2)NC(=O)[C@@H](C)N(C)C1=O", "note": "[Compound 863]", "Ki": "≤ 100"}]}]}
